Patent US20160115540A1, “PRODRUGS AND DRUGS” (Biogen MA Inc., priority 2013, published 2016)
Where a name gives a salt, the structure may show the parent alone.

What was measured:
Format in all cases: in vivo, C57BL/6 mice
striatum = experiment: Transcriptional profiling on Affymetrix GeneChips, single dose, naïve mice: striatum; conditions: for Number of differentially expressed genes identified: Striatum: Naïve, Single Dose; for differentially expressed genes: 100DMF-vs-100MMF
Experimental: (§1) Treated mice were sacrificed at 2, 7, or 12 hours. Tissues (liver, spleen, kidney, jejunum, cortex, hippocampus, striatum and whole blood) were collected and analyzed by transcriptional profiling on mouse Affymetrix GeneChips.
(§2) Tissues (liver, spleen, kidney, jejunum, cortex, hippocampus, striatum and whole blood) were collected and analyzed by transcriptional profiling on mouse Affymetrix GeneChips.
(§3) Animals were exposed to CO2 and whole blood collected via cardiac puncture. Two 100 μl aliquots of whole blood were collected in 1.5 mL microcentrifuge tubes and snap frozen in liquid nitrogen. Peripheral (liver, spleen, kidney and jejunum) and CNS brain (cerebellum, hippocampus, striatum and cortex) tissues were harvested and snap frozen in liquid nitrogen, with special care taken to collect tissues of similar size and from the same location. All samples were stored at −80° C. until RNA extraction was conducted.
(§4) For RNA preparation, frozen tissues were placed in 2 mL RNAse-free 96-well blocks with 1.5 mL QIAzol Lysis Reagent (QIAgen) and a 3.2 mm stainless steel bead (BioSpec Products, Bartlesville, Okla.). Tissues were disrupted for four cycles of 45 seconds in a Mini-Beadbeater (Biospec Products). RNA was extracted in chloroform and the aqueous phase was mixed with an equal volume of 70% ethanol. Extracted RNA was applied to RNeasy 96 plates and purified by the spin method according to the manufacturer's protocol (RNeasy 96 Universal Tissue Protocol, QIAgen, Hilden Germany).
(§5) Automated sample amplifications and biotin labelings were carried out using the NuGEN Ovation RNA Amplification system V2 (Cat #3100), Ovation WB reagent (Cat #1300) and Encore Biotin module (Cat #4200) (NuGEN Technologies, Inc, San Carlos, Calif.) according to manufacturer's recommendations using an Arrayplex automated liquid handler (Beckman Coulter, Indianapolis, Ind.). Two micrograms of biotin labeled sscDNA probe were hybridized to Affymetrix GeneChip Affymetrix HT_MG-430_PM plate arrays with modified conditions as described in Allaire et al. Washing and staining of the hybridized arrays were completed as described in the GeneChip Expression analysis technical manual for HT plate arrays using the Genechip® Array Station (Affymetrix, Santa Clara, Calif.) with modifications as described in Allaire et al. The processed GeneChip® plate arrays were scanned using GeneTitan scanner (Affymetrix, Santa Clara, Calif.).
(§6) Affymetrix scans were subject to quality control (QC) measures. These tests included a visual inspection of the distribution of raw signal intensities and an assessment of RNA degradation, relative log expression (RLE), and normalized unsealed standard error (NUSE). All sample scans that passed these QC metrics were included in the analysis.
(§7) All CEL files were subjected to GC-content-based Robust Multi-array Average (GCRMA) normalization (version 2.20.0) (Irizarry R A, et al. Nucleic Acids Res 2003; 31:e15; Li C, et al. Genome Biol 2001; 2:[…]0032). Expression levels were log (base 2) transformed.
(§8) All calculations and analyses were carried out using R (version 2.11.1) and Bioconductor computational tools (Gentleman R. Springer Science+Business Media 2005).

cortex = experiment: Transcriptional profiling on Affymetrix GeneChips, single dose, naïve mice: cortex; conditions: for Number of differentially expressed genes identified: Cortex: Naïve, Single Dose
Experimental: as §1, §2, §3, §4, §5, §6, §7, §8

hippocampus = experiment: Transcriptional profiling on Affymetrix GeneChips, single dose, naïve mice: hippocampus; conditions: for Number of differentially expressed genes identified: Hippocampus: Naïve, Single Dose
Experimental: as §1, §2, §3, §4, §5, §6, §7, §8

[1] = 100 mpk DMF-vs-100 mpk MMF, 2 h after last dosing
[2] = 100 mpk DMF-vs-100 mpk MMF, 7 h after last dosing
[3] = 100 mpk DMF-vs-100 mpk MMF, 12 h after last dosing
[4] = 100 mpk, vs Vehicle, 2 h after last dosing
[5] = 100 mpk, vs Vehicle, 7 h after last dosing
[6] = 100 mpk, vs Vehicle, 12 h after last dosing
[7] = hippocampus, 100DMF-vs-100MMF, 2 h
[8] = hippocampus, 100DMF-vs-Veh, 7 h

With `COC(=O)/C=C/C(=O)OC` [DMF, dimethyl fumarate] the “Number of differentially expressed genes identified: Striatum” value (shortened to “Number of differentially … Striatum”) (striatum; [1]) was 0, the “Number of differentially … Striatum” value (striatum; [2]) was 0 and the “Number of differentially … Striatum” value (striatum; [3]) was 0. The “Number of differentially … Striatum” value (striatum; [4]) was 4, the “Number of differentially … Striatum” value (striatum; [5]) was 2 and the “Number of differentially … Striatum” value (striatum; [6]) was 2. The “Number of genes, DMF Only / MMF Only” value (striatum; Striatum) was 5, the “Gtpbp10 (1434030_PM_at) differential expression” value (striatum; Striatum, 2 hr) was −1.52 and the “Kdm3b (1428320_PM_at) differential expression” value (striatum; Striatum, 2 hr) was −1.54. The “Mkln1 (1416734_PM_at) differential expression” value (striatum; Striatum, 2 hr) was −1.97, the “Ptprg (1456070_PM_at) differential expression” value (striatum; Striatum, 2 hr) was −1.54 and the “Aox1 (1419435_PM_at) differential expression” value (striatum; Striatum, 7 hr) was 1.64. For the same compound, the “Nfia (1438236_PM_at) differential expression” value (striatum; Striatum, 12 hr) was −1.53, the “Zeb2 (1422748_PM_at) differential expression” value (striatum; Striatum, 12 hr) was −1.66 and the differentially expressed genes (striatum; striatum, 2 h) was “None”. The differentially expressed genes (striatum; striatum, 7 h) was “None”, the differentially expressed genes (striatum; striatum, 12 h) was “None” and the “FC Gtpbp10 (1434030_PM_at)” value (striatum; striatum, 100DMF-vs-Veh, 2 h) was −1.52. The “FC Kdm3b (1428320_PM_at)” value (striatum; striatum, 100DMF-vs-Veh, 2 h) was −1.54, the “FC Mkln1 (1416734_PM_at)” value (striatum; striatum, 100DMF-vs-Veh, 2 h) was −1.97 and the “FC probe 1444791_PM_at” value (striatum; striatum, 100DMF-vs-Veh, 2 h) was −1.60. For the same compound, the “FC Aox1 (1419435_PM_at)” value (striatum; striatum, 100DMF-vs-Veh, 7 h) was 1.64, the “FC probe 1443353_PM_at” value (striatum; striatum, 100DMF-vs-Veh, 7 h) was −1.83 and the “FC Nfia (1438236_PM_at)” value (striatum; striatum, 100DMF-vs-Veh, 12 h) was −1.53. The “FC Zeb2 (1422748_PM_at)” value (striatum; striatum, 100DMF-vs-Veh, 12 h) was −1.66, the “Number of genes, DMF Only / MMF Only” value (cortex; Cortex) was 2 and the “Fgfbp1 (1419086_PM_at) differential expression” value (cortex; Cortex, 7 hr) was 1.54. For the same compound, the “Nqo1 (1423627_PM_at) differential expression” value (cortex; Cortex, 7 hr) was 1.50, the “Number of differentially expressed genes identified: Cortex” value (“Number of differentially … Cortex” below) (cortex; [1]) was 0 and the “Number of differentially … Cortex” value (cortex; [2]) was 0. For the same compound, the “Number of differentially … Cortex” value (cortex; [3]) was 0, the “Number of differentially … Cortex” value (cortex; [4]) was 2 and the “Number of differentially … Cortex” value (cortex; [5]) was 2. The “Number of differentially … Cortex” value (cortex; [6]) was 0, the differentially expressed genes (cortex; cortex, 100DMF-vs-100MMF, 2 h) was “None” and the differentially expressed genes (cortex; cortex, 100DMF-vs-100MMF, 7 h) was “None”. The differentially expressed genes (cortex; cortex, 100DMF-vs-100MMF, 12 h) was “None”, the “FC AI314604 (1442075_PM_at)” value (cortex; cortex, 100DMF-vs-Veh, 2 h) was 1.57 and the “FC Ciapin1 (1448140_PM_at)” value (cortex; cortex, 100DMF-vs-Veh, 2 h) was 1.55. For the same compound, the “FC Fgfbp1 1419086_PM_at” value (cortex; cortex, 100DMF-vs-Veh, 7 h) was 1.54, the “FC Nqo1 (1423627_PM_at)” value (cortex; cortex, 100DMF-vs-Veh, 7 h) was 1.50 and the differentially expressed genes (cortex; cortex, 100DMF-vs-Veh, 12 h) was “None”. For the same compound, the “Number of genes, DMF Only / MMF Only” value (hippocampus; Hippocampus) was 0, the “Tmtc3 (1458305_PM_at) differential expression” value (hippocampus; Hippocampus, 7 hr) was −2.38 and the “Number of differentially expressed genes identified: Hippocampus” value (“Number of differentially … Hippocampus” below) (hippocampus; [1]) was 2. The “Number of differentially … Hippocampus” value (hippocampus; [2]) was 0, the “Number of differentially … Hippocampus” value (hippocampus; [3]) was 0 and the “Number of differentially … Hippocampus” value (hippocampus; [4]) was 0. For the same compound, the “Number of differentially … Hippocampus” value (hippocampus; [5]) was 2, the “Number of differentially … Hippocampus” value (hippocampus; [6]) was 0 and the “FC Dio2 (1418938_PM_at)” value (hippocampus; [7]) was 1.58. The “FC Tmtc3 (1458305_PM_at)” value (hippocampus; [7]) was −1.88, the differentially expressed genes (hippocampus; hippocampus, 100DMF-vs-100MMF, 7 h) was “None” and the differentially expressed genes (hippocampus; hippocampus, 100DMF-vs-100MMF, 12 h) was “None”. For the same compound, the differentially expressed genes (hippocampus; hippocampus, 100DMF-vs-Veh, 2 h) was “None”, the “FC Tmtc3 (1458305_PM_at)” value (hippocampus; [8]) was −2.38 and the “FC probe 1443353_PM_at” value (hippocampus; [8]) was −1.84. The differentially expressed genes (hippocampus; hippocampus, 100DMF-vs-Veh, 12 h) was “None”.
